Where a name gives a salt, the structure may show the parent alone.
What was measured:
[1] = system: NCI-H460; assay: Viability assay with NCI-H460 (CellTiter-Glo cytotoxicity assay, 72 h); type: cell-based; conditions: NCI-H460 cell line, 72 h after compounds addition
Experimental: (§1) NCI-H460 (Epithelial lung tissue; carcinoma; large cell lung cancer) were cultured in RPMI Medium 1640 (Invitrogen-22400105) supplemented with 10% fetal bovine serum (FBS; Invitrogen-10099141). All the cell lines were maintained in a humidified incubator at 37° C. with 5% CO2. Cell culture media and supplements were purchased from Invitrogen, and tissue culture flasks were purchased from Corning, 96-well plates were purchased from Greiner. CellTiter-Glo Luminescent Cell Viability Assay kits were purchased from Promega (Promega-G7573), cells counter Vi-Cell was purchased from Beckman, D300e digital dispenser was purchased from Tecan, detection instrument Envision was purchased from PerkinElmer.
(§2) Paclitaxel was purchased from SELLECK, test compounds, such as any one of the compounds disclosed herein, attained solubility in DMSO and when diluted into culture media. DMSO, solutions containing the test compounds, and culture media were warmed to 37° C. or room temperature for the solution preparation and dilutions.
(§3) NCI-H460 Cell line were seeded in 96-well plates (1200/well) and allowed to adhere to overnight (100 uL/well), for drug treatments with 2 fold dilution, 9 dose points, triplicates or vehicle control, compound stock solutions were prepared in DMSO and use D300e digital dispenser to add compounds to the wells to give the indicated final drug concentrations. Final DMSO concentration was 0.5%. Cellular ATP concentrations were assessed by using the CellTiter-Glo Cell Viability Assay as per the manufacturer's instructions 72 h after compounds addition. Additional cells lines were assayed with any one of the compounds disclosed herein according to the procedures described for the viability assay with NCI-H460.

[2] = system: MIA PaCa-2; assay: Viability assay with MIA PaCa-2; type: cell-based; conditions: MIA PaCa-2, viability assay per Example 57
Experimental: as §1, §2, §3
A viability assay with MIA PaCa-2 (Epithelial pancreas tissue; carcinoma) was performed with compounds listed in Table 15, according to the procedures described in Example 57.

NC1(C(=O)NCCCn2cc(-c3ccc(OC(F)(F)F)cc3)c3cc(CNC4C5CN(Cc6c(Cl)cccc6Cl)CC54)ccc32)CCNCC1 (stereo not shown) [C79; Formic acid]
EC50 [1]: ≤ 5 µM | EC50 [2]: ≤ 5 µM

NCCCn1cc(-c2ccc(OC(F)(F)F)cc2)c2cc(CN3CCN(Cc4c(Cl)cccc4Cl)CC3)cnc21 [C177; HCl]
EC50 [1]: ≤ 5 µM | EC50 [2]: ≤ 5 µM

NC1(C(=O)NCCCn2cc(-c3ccc(OC(F)(F)F)cc3)c3cc(CN4CC5(CCN(Cc6c(Cl)cccc6Cl)CC5)C4)ccc32)CCNCC1 [C65; HCl]
EC50 [1]: ≤ 5 µM | EC50 [2]: ≤ 5 µM

NC1(C(=O)NCCCc2cn(-c3ccc(OC(F)(F)F)cc3)c3cc(C(=O)N4CCN(Cc5c(Cl)cccc5Cl)CC4)ccc23)CCNCC1 [C80; HCl]
EC50 [1]: ≤ 5 µM | EC50 [2]: ≤ 5 µM

NCCCn1cc(-c2ccc(OC(F)(F)F)cc2CN)c2cc(CN3CCN(Cc4ccc5c(c4)OCCO5)CC3)ccc21 [C303; HCl]
EC50 [1]: ≤ 5 µM | EC50 [2]: ≤ 5 µM

NC1(C(=O)NCCCn2cc(-c3ccc(OC(F)(F)F)cc3)c3cc(CN4CCC5(CCN(Cc6c(Cl)cccc6Cl)CC5)C4)ccc32)CCNCC1 [C61; HCl]
EC50 [1]: ≤ 5 µM | EC50 [2]: ≤ 5 µM

NC1(C(=O)NCCCn2cc(-c3ccc(OC(F)(F)F)cc3)c3cc(CN4CC5CCC4CN5Cc4c(Cl)cccc4Cl)ccc32)CCNCC1 (stereo not shown) [C69; HCl]
EC50 [1]: ≤ 5 µM | EC50 [2]: ≤ 5 µM

CC(C)(C)OC(=O)N1CCC(N)(C(=O)NCCCn2cc(-c3ccc(OC(F)(F)F)cc3)c3cc(CN4CCN(Cc5c(Cl)cccc5Cl)CC4)cnc32)CC1 [C175; Formic Acid]
EC50 [1]: ≤ 5 µM | EC50 [2]: 5 to 10 µM

NC1(C(=O)NCCCn2cc(-c3ccc(OC(F)(F)F)cc3)c3cc(CN4CCN(Cc5c(Cl)cccc5Cl)CC4)cnc32)CCNCC1 [C174; HCl]
EC50 [1]: ≤ 5 µM | EC50 [2]: ≤ 5 µM

COc1ccc(Cl)c(CN2CCN(Cc3ccc4c(c3)c(-c3ccc(OC(F)(F)F)cc3CN)cn4CCCN)CC2)c1 [C307; HCl]
EC50 [1]: ≤ 5 µM | EC50 [2]: ≤ 5 µM

NC1(C(=O)NCCCn2cc(-c3ccc(OC(F)(F)F)cc3)c3cc(CN4CCN(Cc5ccccc5)CC4)ccc32)CCNCC1 [C72; HCl]
EC50 [1]: ≤ 5 µM | EC50 [2]: ≤ 5 µM

NC1(C(=O)NCCCn2cc(-c3ccc(OC(F)(F)F)cc3)c3cc(CN4CCN(Cc5ccccc5F)CC4)ccc32)CCNCC1 [C60; Formic acid]
EC50 [1]: ≤ 5 µM | EC50 [2]: ≤ 5 µM

NC1(C(=O)NCCCn2cc(-c3ccc(OC(F)(F)F)cc3)c3cc(CN4CCC5(CC4)CN(Cc4c(Cl)cccc4Cl)C5)ccc32)CCNCC1 [C76; HCl]
EC50 [1]: 5 to 10 µM | EC50 [2]: ≤ 5 µM

NC1(C(=O)NCCCn2cc(-c3ccc(OC(F)(F)F)cc3)c3cc(CN4CCN(Cc5ccccc5C(F)(F)F)CC4)ccc32)CCNCC1 [C63; HCl]
EC50 [1]: ≤ 5 µM | EC50 [2]: ≤ 5 µM

COc1cccc(CN2CCC3(CC2)CCN(Cc2ccc4c(c2)c(-c2ccc(OC(F)(F)F)cc2)cn4CCCN)C3)c1 [C309; HCl]
EC50 [1]: ≤ 5 µM | EC50 [2]: ≤ 5 µM

NC1(C(=O)NCCCc2cn(-c3ccc(OC(F)(F)F)cc3)c3cc(CN4CCN(Cc5c(Cl)cccc5Cl)CC4)ccc23)CCNCC1 [C75; HCl]
EC50 [1]: ≤ 5 µM | EC50 [2]: ≤ 5 µM

NCCCn1cc(-c2ccc(OC(F)(F)F)cc2CN)c2cc(CN3CCN(Cc4cccc5c4OCO5)CC3)ccc21 [C304; HCl]
EC50 [1]: ≤ 5 µM | EC50 [2]: ≤ 5 µM

NC1(C(=O)NCCCn2cc(-c3ccc(OC(F)(F)F)cc3)c3cc(CN4CCN(Cc5ccccc5OC(F)(F)F)CC4)ccc32)CCNCC1 [C58; Formic acid]
EC50 [1]: ≤ 5 µM | EC50 [2]: ≤ 5 µM

NC1(C(=O)NCCCn2cc(-c3ccc(OC(F)(F)F)cc3)c3cc(CN4CCN(Cc5ccccc5Cl)CC4)ccc32)CCNCC1 [C62; HCl]
EC50 [1]: ≤ 5 µM | EC50 [2]: ≤ 5 µM

NC1(C(=O)NCCCn2cc(-c3ccc(OC(F)(F)F)cc3)c3cc(CN4CCC5(CC4)CCN(Cc4c(Cl)cccc4Cl)CC5)ccc32)CCNCC1 [C67; Formic acid]
EC50 [1]: ≤ 5 µM | EC50 [2]: ≤ 5 µM

NC1(C(=O)NCCCn2cc(-c3ccc(OC(F)(F)F)cc3)c3cc(CN4CC5C(C4)C5NCc4c(Cl)cccc4Cl)ccc32)CCNCC1 (stereo not shown) [C85; HCl]
EC50 [1]: ≤ 5 µM | EC50 [2]: ≤ 5 µM

COc1ccccc1CN1CCN(Cc2ccc3c(c2)c(-c2ccc(OC(F)(F)F)cc2)cn3CCCNC(=O)C2(N)CCNCC2)CC1 [C59; Formic acid]
EC50 [1]: ≤ 5 µM | EC50 [2]: ≤ 5 µM

NC1(C(=O)NCCCn2cc(-c3ccc(OC(F)(F)F)cc3)c3cc(CN4CCN(Cc5c(Cl)cccc5Cl)CC4)ccc32)CCCCC1 [C82; HCl]
EC50 [1]: ≤ 5 µM | EC50 [2]: ≤ 5 µM

Source: patent US20170158702A1, “MULTIVALENT RAS BINDING COMPOUNDS” (KYRAS THERAPEUTICS, INC., priority 2015, published 2017)
